Measurements: publication PMC7821181, “MS Binding Assays for Glycine Transporter 2 (GlyT2) Employing Org25543 as Reporter Ligand” (Chemmedchem, 2020)
pIC50, pKd: −log10 of the molar value. Values joined by “and” are separate entries in the source; they are usually repeats but may differ in a detail not shown here. Identical values can stand only once. “Also recorded” adds a separate entry of the source.

How the values were obtained:
hGlyT2 = target: T1, hGlyT2 (Homo sapiens, UniProt Q9Y345); assay: GlyT2 MS Binding Assays: kinetic (dissociation and association) experiments
T1 construct: host or cells: HEK293 cells stably expressing hGlyT2; crude membrane fractions
T1 sequence (Q9Y345 1-797): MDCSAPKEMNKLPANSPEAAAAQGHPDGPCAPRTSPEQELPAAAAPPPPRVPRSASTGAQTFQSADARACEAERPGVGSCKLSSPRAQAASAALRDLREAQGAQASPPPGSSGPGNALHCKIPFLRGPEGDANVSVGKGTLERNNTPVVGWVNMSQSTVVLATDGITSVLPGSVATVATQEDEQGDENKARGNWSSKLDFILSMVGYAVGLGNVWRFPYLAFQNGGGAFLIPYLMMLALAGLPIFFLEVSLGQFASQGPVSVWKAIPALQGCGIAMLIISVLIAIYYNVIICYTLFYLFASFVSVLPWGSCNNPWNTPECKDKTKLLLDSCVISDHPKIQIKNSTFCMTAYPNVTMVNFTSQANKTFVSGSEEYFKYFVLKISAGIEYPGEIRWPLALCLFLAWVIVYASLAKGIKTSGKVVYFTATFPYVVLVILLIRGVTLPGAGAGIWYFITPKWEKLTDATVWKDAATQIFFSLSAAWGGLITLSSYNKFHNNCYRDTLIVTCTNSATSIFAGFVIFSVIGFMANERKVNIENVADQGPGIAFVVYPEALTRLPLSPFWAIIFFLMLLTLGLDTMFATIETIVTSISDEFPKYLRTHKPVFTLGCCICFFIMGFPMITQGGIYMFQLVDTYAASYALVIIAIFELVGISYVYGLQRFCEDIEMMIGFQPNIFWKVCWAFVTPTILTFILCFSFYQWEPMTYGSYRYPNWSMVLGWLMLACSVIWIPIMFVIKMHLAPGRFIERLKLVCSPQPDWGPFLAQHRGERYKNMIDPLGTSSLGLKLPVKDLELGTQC
Experimental: For the determination of the dissociation rate constant of Org25543 the so‐called displacer method was applied. Thus, after the target protein GlyT2 had been incubated with the reporter ligand Org25543 at a defined concentration (final concentration: 10 nM) and the binding allowed to reach equilibrium (1 h) dissociation was initiated by addition of 8 (final concentration: 30 μM). Overall, 12 samples were taken, the first after 15 s and the last after 3 h, and processed as described for competitive binding experiments. The same way nonspecific binding was determined except that the target protein had been subjected to a heat‐shock before. Plotting of specific binding calculated from total and nonspecific binding against time yielded the respective dissociation curves.
Next, for the determination of the association kinetics of Org25543 association experiments had to be performed. By the knowledge of [L] and k off, from k obs as the primary result of such experiments, finally, the derived rate constant k on becomes accessible by using the relation given at Equation 1, the transformed form of which is Equation 2. (1) kobs=kon×L+koff (2) kon=(kobs-koff)/L
For the determination of k obs Org25543 was added to the target protein, to start the association process, which was then stopped at eleven different time points (15 s–2 h), to measure the amount of bound marker at these defined time points. The nonspecific binding was determined for the same time points like for total binding samples but utilizing target material that had been subjected to a heat‐shock before. The concentration of the reporter ligand Org25543 was set to a value of 10 nM. […] For the establishment of association curves specific binding calculated from total binding and nonspecific binding was plotted against time.
Dissociation experiments via displacing Org25543 from GlyT2 with an excess of competitor were performed in 25 mL round bottom flasks made of glass (Duran Wheaton Kimble Life Sciences GmbH, Wertheim, Germany). For determining dissociation rate constants by the displacer approach GlyT2 membrane fractions were pre‐incubated with Org25543 at a nominal concentration of 10 nM at 37 °C in a water bath for 1 h in a total volume of 24.85 mL. The solution and the water bath were stirred constantly with magnetic stir bars at a frequency of ∼500 rpm. After 1 h of incubation dissociation was initiated by adding 150 μL of 8 resulting in […] of 30 μM. After defined time points (15 s–3 h, twelve dissociation time points, samples for each time point were prepared in triplicates) dissociation was terminated via vacuum filtration and the samples were treated the same way as described in Experimental Section MS Binding Assay: General procedure. Nonspecific binding was determined at the same time points as for the dissociation samples but incubating 10 nM Org25543 in the presence of 30 μM 8 and heat‐shocked GlyT2 membrane preparations (triplicate).

GlyT2 [1] = target: T2, GlyT2 (Homo sapiens, UniProt Q9Y345); assay: preliminary Org25543 saturation experiments in absence or presence of glycine; assay type: binding; conditions: for Bmax in relation to control without glycine (100 %) / Kd in relation to control without glycine (100 %): mean ± SD, two experiments
T2 construct: host or cells: HEK293 cells stably expressing hGlyT2; crude membrane fractions
T2 sequence (Q9Y345 1-797): T1 sequence (Q9Y345 1-797)
Experimental: glass fiber, 1.0 µm, 350 µL; Pall Corporation, Port Washington, NY, USA) were washed with water (3 x 200 µL) and methanol (3 x 200 µL) and subsequently pre-incubated for 2 h at room temperature with 0.5 % polyethylenimine (PEI). […]
KCl, 1 mM MgCl2, 1 mM CaCl2, pH 7.5) in polypropylene 96 well plates (1.2 mL well volume, Sarstedt, Nümbrecht, Germany) in total volume of 250 µL at 37 °C in a shaking water bath. After the incubation times for the filters and incubation samples had been expired, PEI was removed from the filters by vacuum filtration and 210 µL aliquots of the incubation samples were transferred on the filters and were removed by vacuum filtration as well. The filters were washed with ammonium ac etate buffer (3 x 200 µL, 154 mM, pH 7.4) and were dried at 50 °C for 1 h. After that the remaining Org25543 on the filters were washed down with acetonitrile (3 x 70 µL) containing [ 2H7]Org25543 (125 pM) and 52.5 µL ammonium bicarbonate buffer (5 mM, pH 7.8) was added to the samples to adjust the sample solvent to the mobile phase (5 mM ammonium bicarbonate buffer ( pH 7.8)/acetonitrile ( 20:80, v/v)). Finally, the samples were subjected to LC-ESI-MS/MS quantification without further sample preparation. […]
Investigating the inhibition mode of glycine in preliminary Org25543 saturation […]
In these preliminary experiments saturation experiments were performed in the same way as it is described in the Material and methods part except that Org25543 and GlyT2 were incubated either in the absence of glycine or in the presence of 2, 20 or 200 mM glycine. The saturation isotherms of a representative experiment are depicted […]
(control) in all experiments and Kd and Bmax values determined in the presence of the […]

GlyT2 [2] = conditions: ref 23, 27; read-out: IC50 (literature range); cited from earlier work

COc1cc(C(=O)NCC2(N(C)C)CCCC2)cc(OC)c1OCc1ccccc1 [Org25543, N‐[[1‐(dimethylamino)cyclopentyl]methyl]‐3,5‐dimethoxy‐4‐(phenylmethoxy)benzamide]
pKd (hGlyT2): 8.16 | k obs (observed association rate constant) (hGlyT2; Org25543 10 nM, 37 °C, mean±SEM, n=3): 1.72±0.01×10^−2 s^−1 and 1.72×10^−2 s^−1 | koff (hGlyT2; Org25543 10 nM, displacement by 30 μM 8, 37 °C, mean±SEM, n=3, read-out: k off (dissociation rate constant)): 0.00707 s⁻¹ | kon (hGlyT2; calculated as (k obs−k off)/L, read-out: k on (association rate constant)): 1.01e+06 M⁻¹ s⁻¹ | reversibility of binding at GlyT2, in words (hGlyT2; dissociation experiments): fully reversible; also recorded: full reversibility | Bmax in relation to control without glycine (100 %) (GlyT2 [1]; 2 mM glycine): 106 ± 13% | Kd in relation to control without glycine (100 %) (GlyT2 [1]; 2 mM glycine): 129 ± 24% | Bmax in relation to control without glycine (100 %) (GlyT2 [1]; 20 mM glycine): 101 ± 12% | Kd in relation to control without glycine (100 %) (GlyT2 [1]; 20 mM glycine): 222 ± 56% | Kd in relation to control without glycine (100 %) (GlyT2 [1]; 200 mM glycine): 814 ± 154% | B max (representative preliminary saturation experiment) (GlyT2 [1]; in the presence of 2 mM glycine): 9.75 pmol (mg protein)-1 | B max (representative preliminary saturation experiment) (GlyT2 [1]; in the presence of 20 mM glycine): 9.24 pmol (mg protein)-1 | B max (representative preliminary saturation experiment) (GlyT2 [1]; in the presence of 200 mM glycine): 8.74 pmol (mg protein)-1 | B max (representative preliminary saturation experiment) (GlyT2 [1]; without glycine): 8.45 pmol (mg protein)-1 | pKd (GlyT2 [1]; without glycine, read-out: K d of Org25543 (representative preliminary saturation experiment)): 8.29 | pIC50 (GlyT2 [2]): 7.51 to 7.80
